These are literature values, as cited in patent US8329872B2, “Drug monitoring assay” (Novartis AG, priority 2007, dated 2012).

This series has as its target classical and novel protein kinase C (PKC) isoforms.

`CN1CCN(c2nc(C3=C(c4c[nH]c5ccccc45)C(=O)NC3=O)c3ccccc3n2)CC1` [AEB071]: the ki values result is “in the nM range”.
